{"source": "paper PMC9569839", "about": "“Methionine 274 Is Not the Determining Factor for Selective Inhibition of Histone Deacetylase 8 (HDAC8) by L-Shaped Inhibitors” (International Journal of Molecular Sciences, 2022)", "key": {"[1]": {"system": "HDAC1", "settings": "cited from earlier work"}, "[2]": {"system": "HDAC2", "settings": "cited from earlier work"}, "[3]": {"system": "HDAC4", "settings": "cited from earlier work"}, "[4]": {"system": "HDAC6", "settings": "cited from earlier work"}, "[5]": {"system": "HDAC3", "settings": "read-out: IC50 (HDAC3), cited from earlier work"}, "[6]": {"target": "T1, HDAC8wt (Homo sapiens, UniProt Q9BY41)", "T1 sequence (Q9BY41 1-377)": "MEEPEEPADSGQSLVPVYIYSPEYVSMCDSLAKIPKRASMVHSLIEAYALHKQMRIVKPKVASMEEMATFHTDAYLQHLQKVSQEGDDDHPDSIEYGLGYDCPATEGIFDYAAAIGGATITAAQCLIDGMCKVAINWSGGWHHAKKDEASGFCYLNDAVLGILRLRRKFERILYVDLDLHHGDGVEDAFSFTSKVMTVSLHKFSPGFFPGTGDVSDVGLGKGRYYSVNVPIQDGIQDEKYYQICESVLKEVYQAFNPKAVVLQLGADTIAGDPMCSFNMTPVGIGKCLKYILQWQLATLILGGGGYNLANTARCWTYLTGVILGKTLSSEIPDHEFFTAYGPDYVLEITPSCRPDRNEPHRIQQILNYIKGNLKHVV", "assay": "Enzyme activity assay, IC50 determination with Boc-Lys(TFA)-AMC"}, "[7]": {"target": "T2, HDAC8M274A (Homo sapiens, UniProt Q9BY41, M274A)", "T2 sequence (Q9BY41 1-377 M274A)": "T1 sequence (Q9BY41 1-377) with M274A", "assay": "Enzyme activity assay, IC50 determination with Boc-Lys(TFA)-AMC"}, "[8]": {"system": "HDAC10", "settings": "cited from earlier work"}, "[9]": {"system": "HDAC8", "settings": "cited from earlier work"}, "[10]": {"system": "HDAC11", "set-up": "method as in Huang et al. [14]", "settings": "ref Huang et al. [14]; cited from earlier work"}, "[11]": {"system": "several cancer cell lines", "set-up": "method as in PMID 22907916", "settings": "ref [14]; cited from earlier work"}, "[12]": {"settings": "ref Balasubramanian et al. [12]"}, "[13]": {"settings": "TSA value of Figure 1, source not given"}}, "note": "Changes are numbered by the printed parent chain. Like-named read-outs stand apart in the source and are kept apart here.", "data": [{"smiles": "O=C(NO)c1cccc(-c2cn(CSc3ccccc3)nn2)c1", "note": "[NCC-149]", "values": [{"measurement": "IC50", "setting": "[1]; ref Suzuki et al. [13]", "result": 38, "unit": "µM"}, {"measurement": "IC50", "setting": "[2]; ref Suzuki et al. [13]", "result": "> 100", "unit": "µM"}, {"measurement": "IC50", "setting": "[3]; ref Suzuki et al. [13]", "result": 44, "unit": "µM"}, {"measurement": "IC50", "setting": "[4]; ref Suzuki et al. [13]", "result": 2.4, "unit": "µM"}, {"measurement": "IC50", "setting": "[5]; ref Suzuki et al. [13]", "result": "> 68", "unit": "µM"}, {"measurement": "IC50", "setting": "[6]", "result": 0.04, "unit": "µM"}, {"measurement": "IC50", "setting": "[7]", "result": 0.3, "unit": "µM"}]}, {"smiles": "COc1ccc(Cn2ccc3ccc(C(=O)NO)cc32)cc1", "note": "[PCI-34051]", "values": [{"measurement": "IC50", "setting": "[2]; [12]", "result": "[…]"}, {"measurement": "IC50", "setting": "[8]; [12]", "result": "[…]"}, {"measurement": "IC50", "setting": "[9]; read-out: IC50-value (HDAC8), introduction text, ref [12],[13]", "result": "[…]"}, {"measurement": "IC50", "setting": "[5]; [12]", "result": "[…]"}]}, {"smiles": "O=C(CCCCCCC(=O)Nc1ccccc1)NO", "note": "[SAHA, suberoylanilide hydroxamic acid]", "values": [{"measurement": "IC50", "setting": "[4]; [12]", "result": 0.017, "unit": "µM"}]}, {"smiles": "CC(/C=C/C(=O)NO)=C\\[C@@H](C)C(=O)c1ccc(N(C)C)cc1", "note": "[TSA, trichostatin A]", "values": [{"measurement": "IC50", "setting": "[1]; [13]", "result": "[…]"}, {"measurement": "IC50", "setting": "[2]; [13]", "result": "[…]"}, {"measurement": "IC50", "setting": "[3]; [13]", "result": 3.3, "unit": "µM"}, {"measurement": "IC50", "setting": "[4]; [13]", "result": 0.017, "unit": "µM"}, {"measurement": "IC50", "setting": "[9]; read-out: IC50 (HDAC8), TSA value of Figure 1, source not given", "result": 0.36, "unit": "µM"}]}, {"smiles": "COc1ccc(/C=C/C(=O)NO)c(-c2ccc(-c3ccccc3)cc2)c1", "note": "[o-ACHA]", "values": [{"measurement": "IC50", "setting": "[1]; ref Huang et al. [14]", "result": 3, "unit": "µM"}, {"measurement": "IC50", "setting": "[2]; ref Huang et al. [14]", "result": "> 20", "unit": "µM"}, {"measurement": "IC50", "setting": "[3]; ref Huang et al. [14]", "result": "> 20", "unit": "µM"}, {"measurement": "IC50", "setting": "[4]; ref Huang et al. [14]", "result": "> 20", "unit": "µM"}, {"measurement": "IC50", "setting": "[8]; ref Huang et al. [14]", "result": "> 20", "unit": "µM"}, {"measurement": "IC50", "setting": "[10]", "result": "> 20", "unit": "µM"}, {"measurement": "antiproliferative effects", "setting": "[11]", "result": "antiproliferative effects against several cancer cell lines"}, {"measurement": "IC50", "setting": "[5]; ref Huang et al. [14]", "result": 3, "unit": "µM"}]}]}
